Measurements from US10294202B2, “Pyrrolidinones as herbicides” (FMC Corporation, priority 2013, dated 2019).

Tests used:
[1] = tested on: Russian thistle; test: Test C pre-/postemergence herbicide test; type: in vivo, Salsola kali; details: Preemergence
Excerpt: Seeds of plant species selected from blackgrass (Alopecurus myosuroides), ryegrass, Italian (Italian ryegrass, Lolium multiflorum), wheat (winter wheat, Triticum aestivum), galium (catchweed bedstraw, Galium aparine), corn (Zea mays), crabgrass, large (large crabgrass, Digitaria sanguinalis), foxtail, giant (giant foxtail, Setaria faberii), johnsongrass (Sorghum halepense), lambsquarters (Chenopodium album), morningglory (Ipomoea coccinea), nutsedge, yellow (yellow nutsedge, Cyperus esculentus), pigweed (Amaranthus retroflexus), ragweed (common ragweed, Ambrosia elatior), soybean (Glycine max), barnyardgrass (Echinochloa crus-galli), oilseed rape (Brassica napus), waterhemp (common waterhemp, Amaranthus rudis), kochia (Kochia scoparia), oat, wild (wild oat, Avena fatua), surinam grass (Brachiaria decumbens), foxtail, green (green foxtail, Setaria viridis), goosegrass (Eleusine indica), bromegrass, downy (downy bromegrass, Bromus tectorum), nightshade (eastern black nightshade, Solanum ptycanthum), cocklebur (common cocklebur, Xanthium strumarium), cupgrass, woolly (woolly cupgrass, Eriochloa villosa), bermudagrass (Cynodon dactylon), sunflower, (common oilseed sunflower, Helianthus annuus), Russian thistle (Salsola kali) and velvetleaf (Abutilon theophrasti) were planted into a blend of loam soil and sand and treated preemergence with test chemicals formulated in a non-phytotoxic solvent mixture which included a surfactant. At the same time, plants selected from these crop and weed species and also barley (winter barley, Hordeum vulgare), […]), chickweed (common chickweed, Stellaria media), deadnettle (henbit deadnettle, Lamium amplexicaule), and canarygrass (littleseed canarygrass, Phalaris minor) were planted in pots containing Redi-Earth® planting medium (Scotts Company, 14111 Scottslawn Road, Marysville, Ohio 43041) comprising spaghnum peat moss, vermiculite, wetting agent and starter nutrients and treated with postemergence applications of test chemicals formulated in the same manner. Plants ranged in height from 2 to 18 cm (1- to 4-leaf stage) for postemergence treatments. Treated plants and controls were maintained in a greenhouse for 13 to 15 days, after which time all species were compared to controls and visually evaluated. Plant response ratings, summarized in Table C, are based on a scale of 0 to 100 where 0 is no effect and 100 is complete control. A dash (-) response means no test result.

[2] = tested on: Rice, W.S. Ind; test: Test F flood (paddy) test; type: in vivo, Oryza sativa Indica; details: 21 d, scale 0-100
Excerpt: (§1) Three plastic pots (ca. 16-cm diameter) per rate were partially filled with sterilized Tama silt loam soil comprising a 35:50:15 ratio of sand, silt and clay and 2.6% organic matter. Separate plantings for each of the three pots were as follows. Seeds from the U.S. of monochoria (Monochoria vaginalis), sedge, umbrella (small-flower umbrella sedge, Cyperus difformis), bulrush, […] bulrush, Scirpus juncoides), and […] (purple […] coccinea), were planted into one 16-cm pot for each rate. Seeds from the U.S. of flatsedge, rice (rice flatsedge, Cyperus iria), sprangletop, Brdd. (bearded sprangletop, Leptochloa fascicularis), one stand of 9 or 10 water seeded rice seedlings (Rice, W.S. Jap, Oryza sativa cv. 'Japonica-[…]' or Rice, W.S. Ind, 'Indica'), and two stands of 3 or 4 seedlings of rice, transplanted (transplanted rice, Oryza sativa cv. 'Japonica-[…]') were planted into one 16-cm pot for each rate. Seeds from the U.S. of barnyardgrass (Echinochloa crus-galli), […] (common […], Alisma plantago-aquatica), and watergrass, late (late watergrass, Echinochloa oryzicola) were planted into one 16-cm pot for each rate. Plantings were sequential so that crop and weed species were at the 2.0 to 2.5-leaf stage at time of treatment. Potted plants were grown in a greenhouse with day/night temperature settings of 30/27° C., and supplemental balanced lighting was provided to maintain a 16-h photoperiod. Test pots were maintained in the greenhouse until test completion. At time of treatment, test pots were flooded to 3 cm above the soil surface, treated by application of test compounds directly to the paddy water, and then maintained at that water depth for the duration of the test. Effects of treatments on rice and weeds were visually evaluated by comparison to untreated controls after 21 d. Plant response ratings, summarized in Table F, are based on a scale of 0 to 100 where 0 is no effect and 100 is complete control. A dash (-) response means no test result.

[3] = tested on: redstem; test: Test F flood (paddy) test; type: in vivo, Ammannia coccinea; details: 21 d, scale 0-100
Excerpt: as §1

[4] = tested on: flatsedge, rice; test: Test F flood (paddy) test; type: in vivo, Cyperus iria; details: 21 d, scale 0-100
Excerpt: as §1

[5] = tested on: windgrass; test: Test C postemergence herbicide test; type: in vivo, Apera spica-venti
Excerpt: (§2) At the same time, plants selected from these crop and weed species and also barley (winter barley, Hordeum vulgare), […]), chickweed (common chickweed, Stellaria media), deadnettle (henbit deadnettle, Lamium amplexicaule), and canarygrass (littleseed canarygrass, Phalaris minor) were planted in pots containing Redi-Earth® planting medium (Scotts Company, 14111 Scottslawn Road, Marysville, Ohio 43041) comprising spaghnum peat moss, vermiculite, wetting agent and starter nutrients and treated with postemergence applications of test chemicals formulated in the same manner. Plants ranged in height from 2 to 18 cm (1- to 4-leaf stage) for postemergence treatments. Treated plants and controls were maintained in a greenhouse for 13 to 15 days, after which time all species were compared to controls and visually evaluated. Plant response ratings, summarized in Table C, are based on a scale of 0 to 100 where 0 is no effect and 100 is complete control. A dash (-) response means no test result.

[6] = tested on: canarygrass; test: Test C postemergence herbicide test; type: in vivo, Phalaris minor
Excerpt: as §2

[7] = 125 g ai/ha, scale 0 to 100 (0 no effect, 100 complete control)
[8] = 31 g ai/ha, scale 0 (no effect) to 100 (complete control)
[9] = 62 g ai/ha, scale 0 to 100 (0 no effect, 100 complete control)
[10] = 250 g ai/ha, scale 0 to 100 (0 no effect, 100 complete control)
[11] = 16 g ai/ha, scale 0 to 100 (0 no effect, 100 complete control)

## O=C1NCC(c2ccc(Cl)c(Cl)c2)C1C(=O)Nc1ccccc1F (racemic) [Compound 14]
[1]; 62 g ai/ha, scale 0 to 100
  Plant response rating, Russian Thistle: 0
[1]; [7]
  Plant response rating, Russian Thistle: 0

## O=C1NCC(c2ccc(F)c(F)c2)C1C(=O)Nc1cccc(F)c1F (racemic) [Compound 101]
[2]; 64 g ai/ha
  Plant response rating, Rice, W.S. Ind: 0
[2]; 125 g ai/ha
  Plant response rating, Rice, W.S. Ind: 20
[2]; 250 g ai/ha
  Plant response rating, Rice, W.S. Ind: 35
[2]; 500 g ai/ha
  Plant response rating, Rice, W.S. Ind: 60

## O=C1NCC(c2cccc(C(F)F)c2)C1C(=O)Nc1ccccc1F (racemic) [Compound 210]
[2]; 125 g ai/ha
  Plant response rating, Rice, W.S. Ind: 0
[2]; 250 g ai/ha
  Plant response rating, Rice, W.S. Ind: 0
[2]; 500 g ai/ha
  Plant response rating, Rice, W.S. Ind: 0

## O=C1NCCC1C(=O)N(c1ccc(F)c(F)c1)c1ccccc1F (stereo not shown) [Compound 5, N-(3,4-difluorophenyl)-N-(2-fluorophenyl)-2-oxo-3-pyrrolidinecarboxamide]
[1]; 62 g ai/ha, scale 0 to 100
  Plant response rating, Russian Thistle: 0
[3]; 125 g ai/ha
  Plant response rating, Redstem: 0
[3]; 250 g ai/ha
  Plant response rating, Redstem: 0
[3]; 500 g ai/ha
  Plant response rating, Redstem: 40
[3]; 1000 g ai/ha
  Plant response rating, Redstem: 45
[3]; 2000 g ai/ha
  Plant response rating, Redstem: 45
[4]; 125 g ai/ha
  Plant response rating, Flatsedge, Rice: 0
[4]; 250 g ai/ha
  Plant response rating, Flatsedge, Rice: 0
[4]; 500 g ai/ha
  Plant response rating, Flatsedge, Rice: 0
[4]; 1000 g ai/ha
  Plant response rating, Flatsedge, Rice: 0
[4]; 2000 g ai/ha
  Plant response rating, Flatsedge, Rice: 0

## O=C1NCC(c2ccc(F)c(F)c2)C1C(=O)Nc1cccc(F)c1F (stereo not shown) [Compound 17, N-(2,3-difluorophenyl)-4-(3,4-difluorophenyl)-2-oxo-3-pyrrolidinecarboxamide]
[5]; [8]
  Plant response rating, Windgrass: 0
[5]; [9]
  Plant response rating, Windgrass: 0
[5]; [7]
  Plant response rating, Windgrass: 0
[5]; [10]
  Plant response rating, Windgrass: 0
[6]; [8]
  Plant response rating, Canarygrass: 0
[6]; [9]
  Plant response rating, Canarygrass: 0
[6]; [7]
  Plant response rating, Canarygrass: 0
[6]; [10]
  Plant response rating, Canarygrass: 0
[3]; 125 g ai/ha
  Plant response rating, Redstem: 0
[3]; 250 g ai/ha
  Plant response rating, Redstem: 0
[3]; 500 g ai/ha
  Plant response rating, Redstem: 0
[3]; 1000 g ai/ha
  Plant response rating, Redstem: 35
[3]; 2000 g ai/ha
  Plant response rating, Redstem: 40
[4]; 125 g ai/ha
  Plant response rating, Flatsedge, Rice: 20
[4]; 250 g ai/ha
  Plant response rating, Flatsedge, Rice: 20
[4]; 500 g ai/ha
  Plant response rating, Flatsedge, Rice: 20
[4]; 1000 g ai/ha
  Plant response rating, Flatsedge, Rice: 35
[4]; 2000 g ai/ha
  Plant response rating, Flatsedge, Rice: 40

## O=C1NCC(c2cc(F)c(F)c(F)c2)C1C(=O)Nc1cccc(F)c1F (stereo not shown) [Compound 48]
[5]; [11]
  Plant response rating, Windgrass: 0
[5]; [8]
  Plant response rating, Windgrass: 0
[5]; [9]
  Plant response rating, Windgrass: 0
[5]; [7]
  Plant response rating, Windgrass: 0
[6]; [11]
  Plant response rating, Canarygrass: 0
[6]; [8]
  Plant response rating, Canarygrass: 0
[6]; [9]
  Plant response rating, Canarygrass: 0
[6]; [7]
  Plant response rating, Canarygrass: 0

## O=C1NCC(c2cc(F)c(F)cc2F)C1C(=O)Nc1cccc(F)c1F (stereo not shown) [Compound 50]
[5]; [8]
  Plant response rating, Windgrass: 0
[5]; [9]
  Plant response rating, Windgrass: 0
[5]; [7]
  Plant response rating, Windgrass: 0
[5]; [10]
  Plant response rating, Windgrass: 0
[6]; [8]
  Plant response rating, Canarygrass: 0
[6]; [9]
  Plant response rating, Canarygrass: 0
[6]; [7]
  Plant response rating, Canarygrass: 0
[6]; [10]
  Plant response rating, Canarygrass: 0

## O=C1NCC(c2ccc(Cl)c(F)c2)C1C(=O)Nc1cccc(F)c1F (stereo not shown) [Compound 52]
[5]; [8]
  Plant response rating, Windgrass: 0
[5]; [9]
  Plant response rating, Windgrass: 0
[5]; [7]
  Plant response rating, Windgrass: 20
[5]; [10]
  Plant response rating, Windgrass: 20
[6]; [8]
  Plant response rating, Canarygrass: 0
[6]; [9]
  Plant response rating, Canarygrass: 0
[6]; [7]
  Plant response rating, Canarygrass: 0
[6]; [10]
  Plant response rating, Canarygrass: 0

## O=C1NCC(c2ccc(F)c(Cl)c2)C1C(=O)Nc1ccccc1F (stereo not shown) [Compound 60]
[1]; 62 g ai/ha, scale 0 to 100
  Plant response rating, Russian Thistle: 50
[1]; [7]
  Plant response rating, Russian Thistle: 60
[5]; [8]
  Plant response rating, Windgrass: 0
[5]; [9]
  Plant response rating, Windgrass: 0
[5]; [7]
  Plant response rating, Windgrass: 0
[6]; [8]
  Plant response rating, Canarygrass: 0
[6]; [9]
  Plant response rating, Canarygrass: 0
[6]; [7]
  Plant response rating, Canarygrass: 0

## O=C1NC[C@H](c2cccc(C(F)(F)F)c2)[C@H]1C(=O)Nc1ccccc1F [Compound 204, (3R,4S)—N-(2-fluorophenyl)-2-oxo-4-[3-(trifluoromethyl)phenyl]-3-pyrrolidinecarboxamide]
[2]; 125 g ai/ha
  Plant response rating, Rice, W.S. Ind: 0
[2]; 250 g ai/ha
  Plant response rating, Rice, W.S. Ind: 10
[2]; 500 g ai/ha
  Plant response rating, Rice, W.S. Ind: 20

## O=C1NC[C@H](c2cccc(C(F)(F)F)c2)[C@H]1C(=O)Nc1cccc(F)c1F [Compound 206]
[2]; 64 g ai/ha
  Plant response rating, Rice, W.S. Ind: 15
[2]; 125 g ai/ha
  Plant response rating, Rice, W.S. Ind: 25
[2]; 250 g ai/ha
  Plant response rating, Rice, W.S. Ind: 45
[2]; 500 g ai/ha
  Plant response rating, Rice, W.S. Ind: 65

## CN1CC(c2ccc(F)c(F)c2)C(C(=O)Nc2cccc(F)c2F)C1=O (stereo not shown) [Compound 303]
[3]; 62 g ai/ha
  Plant response rating, Redstem: 0
[3]; 125 g ai/ha
  Plant response rating, Redstem: 0
[3]; 250 g ai/ha
  Plant response rating, Redstem: 0
[3]; 500 g ai/ha
  Plant response rating, Redstem: 30
[4]; 62 g ai/ha
  Plant response rating, Flatsedge, Rice: 0
[4]; 125 g ai/ha
  Plant response rating, Flatsedge, Rice: 0
[4]; 250 g ai/ha
  Plant response rating, Flatsedge, Rice: 0
[4]; 500 g ai/ha
  Plant response rating, Flatsedge, Rice: 0
[2]; 125 g ai/ha
  Plant response rating, Rice, W.S. Ind: 25
[2]; 250 g ai/ha
  Plant response rating, Rice, W.S. Ind: 40
[2]; 500 g ai/ha
  Plant response rating, Rice, W.S. Ind: 70
